Laboratory results published in US20070135437A1, “Modulation of neurodegenerative diseases” (ALSGEN, INC., priority 2005, published 2007).

System: hSOD-1 protein levels in HeLa cells
Test: SOD-1 ELISA on lysates of HeLa cells after 72 h incubation with compound
Format: cell-based, human
Conditions: HeLa cells, 72 hours; dose related, maximal by 10 μM
Procedure: Briefly, cells were maintained in Dulbecco's Minimal Essential Medium, with high glucose, supplemented with glutamine, 4 mM, certified fetal bovine serum, 10%, and penicillin, streptomycin, and nystatin (all from Invitrogen). Incubation conditions were 37 degrees and 99% relative humidity, with CO2 at 5%. Cultures were passaged when they reached 90% confluence. For pharmacological experiments, cells were plated into sterile tissue culture treated 96 well plates at a density of 3,500 cells/well in 150 μl medium. After plating and 6 hours for attachment, drugs were added to the medium in a concentration of 10 μM. Following 72 hours of incubation with the drugs, the cells were photographed at 100× using an inverted microscope and digital camera, so that cytotoxicity could be evaluated. After photodocumentation, the medium was removed and the cells were washed once with phosphate buffered saline, and then 50-100 μl molecular biology grade water containing a protease inhibitor cocktail was added. After 10 min incubation, the plates were placed in −80 degrees to induce complete lysis. Plates were then thawed and 4-25 μl was transferred from each well into a maxsorp ELISA plate coated with anti-human SOD-1 antibody, which contained 75-100 μl phosphate buffered saline or blocking buffer. A second antibody pair (a polyclonal anti-SOD-1/HRP conjugated goat anti-rabbit) was then added to the well, and incubation was conducted for 1 hour at room temperature. At the conclusion of the incubation, the plate was washed three times (wash buffer from KPL Inc.) and Sure Blue Reserve HRP Substrate was added. Following a 5-10 min incubation, the reaction (which had turned blue to varying degrees) was stopped by the addition of a stop reagent (KPL). The plate was then shaken gently for 5 seconds and the absorbance at 450 nm read on a Tecan Plate reader. Absorbance from each sample were compared to standard curve of purified recombinant human SOD-1 assayed on the same ELISA plate, and SOD-1 immunoreactivity (ng/ml) was estimated by comparison with the standard curve. This example describes how to examine the in vitro effects of the antimalarial drug, pyrimethamine, as well as the compounds listed in Tables 1 through 5, on SOD-1 activity. The human cervical carcinoma derived HeLa cell line (ATCC) were cultured in Dulbecco's Minimal Essential Medium, with high glucose, supplemented with glutamine, 4 mM, certified fetal bovine serum, 10%, and penicillin, streptomycin, and nystatin (all from Invitrogen). Incubation conditions were 37° C. and 99% relative humidity, with CO2 at 5%. Cultures were passaged when they reached 90% confluence. For pharmacological experiments, cells were plated into sterile tissue culture treated 96 well plates at a density of 3,500 cells/well in 150 μl medium. Following 72 hours of incubation with each of the compounds, the cells were photographed and processed as described in Example 1 (iii). The total protein of the lysates was determined by Bradford assay as described in Example 1 (iv).

| Structure (SMILES) | levels of SOD-1 protein in HeLa cells |
| --- | --- |
| CN(Cc1cnc2nc(N)nc(N)c2n1)c1ccc(C(=O)N[C@@H](CCC(=O)O)C(=O)O)cc1 [methotrexate, reference compound] | did not reduce |

Same assay, conditions: Table 1B; % reduction of hSOD-1 protein levels in HeLa cells, 72 h treatment, 10 μM

| Structure (SMILES) | Biological Activity (% inhibition at 10 μM) [%] |
| --- | --- |
| Cc1cc(-c2ccccc2)nc(N(C)C)n1 [Compound 1] | 33 |
| CN(C)c1cc(Cl)nc(SCc2ccccc2)n1 [Compound 2] | 77 |
| Cc1cc(C)nc(SCc2cccc(Br)c2)n1 [Compound 3] | 88 |
| Cc1ccc(Nc2nc(Cl)nc(Cl)c2Cl)cc1 [Compound 4] | 96 |
| Cc1cnc(SCc2ccccc2Cl)nc1O [Compound 5] | 79 |
| CCc1nc(N)nc(N)c1-c1ccc(Cl)cc1 [Compound 6] | 50 |
| Cc1cccc(Oc2cnc(S)nc2O)c1 [Compound 7] | 94 |
| Nc1nc(S)ncc1-c1cccc(Cl)c1 [Compound 8] | 99 |
| N#Cc1ccc(CSc2nc(O)cc(O)n2)cc1 [Compound 9] | 58 |
| CCCOc1ccc(-c2cnc(S)nc2N)cc1 [Compound 10] | 99 |
| CCOc1ccc(-c2cnc(S)nc2N)cc1 [Compound 11] | 99 |
| COc1ccc(Cc2c(Cl)nc(SC)nc2Cl)cc1 [Compound 12] | 40 |
| CC(Oc1ccc(Cl)cc1)c1ccnc(N)n1 (stereo not shown) [Compound 22] | 84 |
| Nc1nc(O)ncc1-c1ccc(Cl)cc1 [Compound 23] | 99 |
| Nc1nc(SCC(=O)O)ncc1-c1ccc(Cl)cc1 [Compound 24] | 99 |
| Cc1ccc(Oc2cnc(S)nc2O)cc1 [Compound 25] | 97 |
| Cc1nc(N)nc(O)c1C=CCc1ccc(Cl)cc1 [Compound 26] | 97 |
| Cc1nc(N)nc(N)c1CCCCc1ccc(O)cc1 [Compound 27] | 95 |
| CSc1ncc(Oc2ccc(Cl)cc2)c(O)n1 [Compound 88] | 90 |
| COc1ccc(-c2cc(O)ncn2)cc1OC [Compound 89] | 84 |
| Nc1ccc(Sc2cc(Cl)nc(N)n2)cc1 [Compound 92] | 81 |

| Structure (SMILES) | Biological Activity (% inhibition at 10 μM) [%] |
| --- | --- |
| Cc1cc(C)nc(NC(=N)Nc2cccc(Cl)c2)n1 [Compound 93] | 78 |
| Cc1cc(C)nc(Sc2ccc(N)cc2)n1 [Compound 94] | 77 |
| CSc1nc(N)nc(-c2ccc(Cl)cc2)c1C#N [Compound 95] | 76 |
| CCc1c(O)ncnc1-c1ccc(C)cc1 [Compound 96] | 70 |
| CSc1ccc(CCCc2c(C)nc(N)nc2N)cc1 [Compound 97] | 69 |
| COc1ccc(Cc2c(C)nc(N)nc2O)cc1 [Compound 98] | 67 |
| Oc1ccnc(SCc2ccc(Cl)cc2Cl)n1 [Compound 99] | 66 |
| COc1ccc(CCCc2c(C)nc(N)nc2N)cc1 [Compound 100] | 65 |
| Oc1ccnc(SCc2c(F)cccc2Cl)n1 [Compound 101] | 65 |
| COc1ccc(Cc2cnc(N)nc2N)cc1OC [Compound 102] | 64 |
| N#Cc1ccc(CSc2nccc(O)n2)cc1 [Compound 105] | 53 |
| N#Cc1c(Cl)nc(Cl)nc1Nc1ccccc1 [Compound 106] | 53 |
| CC(=O)c1c(C)nc(-c2ccc(Cl)cc2)nc1N [Compound 107] | 52 |
| Cc1nc(N)nc(N)c1C=Cc1ccccc1 [Compound 109] | 38 |
| Cc1nc(N)nc(N)c1OCc1ccc(Cl)cc1Cl [Compound 110] | 38 |
| Cc1nc(N)nc(N)c1OCCc1ccc(Cl)cc1 [Compound 111] | 37 |
| Cc1nc(N)nc(N)c1-c1ccc(Cl)c(Cl)c1 [Compound 112] | 36 |
| COc1cc(N)nc(SCc2ccccc2Cl)n1 [Compound 113] | 36 |
| Cc1cc(O)nc(SCc2ccc(Cl)cc2Cl)n1 [Compound 114] | 35 |
| COc1ccc(Cc2c(O)nc(S)nc2O)cc1 [Compound 116] | 33 |
| Cc1ccccc1CCCc1c(C)nc(N)nc1N [Compound 118] | 31 |

Same assay, conditions: Table 2; % reduction of hSOD-1 protein levels in HeLa cells, 72 h treatment, 10 μM

| Structure (SMILES) | Biological Activity (% inhibition at 10 μM) [%] |
| --- | --- |
| Cc1ccc(Nc2nc(N)nc(Cl)n2)cc1 [Compound 164] | 43 |
| Cc1ccc(Nc2nc(N)nc(CCl)n2)c(C)c1 [Compound 165] | 99 |
| CCSc1nc(-c2ccccc2)nc(C(Cl)Cl)n1 [Compound 166] | 98 |
| CSc1nc(-c2ccc(C)cc2)nc(C(Cl)Cl)n1 [Compound 168] | 75 |
| CCCCNc1nc(N)nc(-c2cc(Cl)ccc2O)n1 [Compound 170] | 99 |
| CC(C)Nc1nc(Cl)nc(-c2ccccc2)n1 [Compound 186] | 82 |
| Nc1nc(CCl)nc(Nc2ccccc2)n1 [Compound 187] | 77 |
| CC(Nc1nc(N)nc(Cl)n1)c1ccccc1 (stereo not shown) [Compound 188] | 38 |
| CNc1nc(N)nc(-c2cc(Cl)ccc2OC)n1 [Compound 189] | 35 |
| Nc1nc(N)nc(-c2ccccc2Cl)n1 [Compound 190] | 34 |
| CCCNc1nc(N)nc(-c2cc(Cl)ccc2OC)n1 [Compound 191] | 32 |
| Nc1nc(N)nc(-c2cccc([N+](=O)[O-])c2)n1 [Compound 192] | 32 |
| Nc1nc(Nc2ccc(Cl)cc2)nc(C(Cl)Cl)n1 [Compound 193] | 29 |

Same assay, conditions: Table 3; % reduction of hSOD-1 protein levels in HeLa cells, 72 h treatment, 10 μM

| Structure (SMILES) | Biological Activity (% inhibition at 10 μM) [%] |
| --- | --- |
| COc1cccc2oc(-c3ccccc3O)cc(=O)c12 [Compound 121] | 71 |

Same assay, conditions: Table 4 quinazolines; % reduction of hSOD-1 protein levels in HeLa cells following 72 h treatment with 10 μM compound

| Structure (SMILES) | Biological Activity (% inhibition at 10 μM) [%] |
| --- | --- |
| CN1CCN(c2cc(C(F)(F)F)nc3ccc(F)cc23)CC1 [Compound 136] | 64 |

Same assay, conditions: Table 5 heterocyclic amides; % reduction of hSOD-1 protein levels in HeLa cells following 72 h treatment with 10 μM compound

| Structure (SMILES) | Biological Activity (% inhibition at 10 μM) [%] |
| --- | --- |
| Nc1ccc(C(=O)Nc2ncccn2)cc1 [Compound 194] | 92 |
| Cc1ccc(C(=O)Nc2ncccc2Cl)cc1 [Compound 197] | 74 |
| Cc1ccnc(NC(=O)c2cccc(Cl)c2)c1 [Compound 198] | 67 |
| Cc1ccc(NC(=O)c2cc(Cl)ccc2Cl)nc1 [Compound 199] | 94 |
| Cc1ccc(C(=O)Nc2ccc(Cl)cn2)cc1C [Compound 200] | 39 |
| Cc1cccc(C(=O)Nc2ccc(Cl)cn2)c1 [Compound 201] | 39 |
